Results as given in patent US20100029615A1, “BENZIMIDAZOLE DERIVATIVES” (priority 2006, published 2010).
Counter-ions that a name gives are not always drawn.

What follows are compounds tested against T1, SMO (Mus musculus, UniProt P56726) (assay: Smoothened (SMO)/Sonic Hedgehog (SHh) Transient Transcriptional Activation Assay (Gli-luciferase reporter in C3H10T1/2 cells)). Conditions: C3H 10T1/2, 2 μM test compound, SHh 250 ng/ml, 20 hrs, read-out: SMO CELL % INHIBITION @ 2 μM.
T1 construct: endogenous in cells; host or cells: C3H10T1/2 (ATCC #CCL-226)
Assay type: cell-based, murine
Summary of the method: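 Luminescence (Dual-Glo) measured after 20 h co-exposure at 37 °C to 250 ng/ml human SHh and compound at 2 uM down to 2 nM final. Cells were C3H10T1/2 carrying a transfected murine 10× Gli response-element luciferase construct with pEGFP, starved 20 h in 0.5% calf serum beforehand.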

T1 sequence (P56726 33-793): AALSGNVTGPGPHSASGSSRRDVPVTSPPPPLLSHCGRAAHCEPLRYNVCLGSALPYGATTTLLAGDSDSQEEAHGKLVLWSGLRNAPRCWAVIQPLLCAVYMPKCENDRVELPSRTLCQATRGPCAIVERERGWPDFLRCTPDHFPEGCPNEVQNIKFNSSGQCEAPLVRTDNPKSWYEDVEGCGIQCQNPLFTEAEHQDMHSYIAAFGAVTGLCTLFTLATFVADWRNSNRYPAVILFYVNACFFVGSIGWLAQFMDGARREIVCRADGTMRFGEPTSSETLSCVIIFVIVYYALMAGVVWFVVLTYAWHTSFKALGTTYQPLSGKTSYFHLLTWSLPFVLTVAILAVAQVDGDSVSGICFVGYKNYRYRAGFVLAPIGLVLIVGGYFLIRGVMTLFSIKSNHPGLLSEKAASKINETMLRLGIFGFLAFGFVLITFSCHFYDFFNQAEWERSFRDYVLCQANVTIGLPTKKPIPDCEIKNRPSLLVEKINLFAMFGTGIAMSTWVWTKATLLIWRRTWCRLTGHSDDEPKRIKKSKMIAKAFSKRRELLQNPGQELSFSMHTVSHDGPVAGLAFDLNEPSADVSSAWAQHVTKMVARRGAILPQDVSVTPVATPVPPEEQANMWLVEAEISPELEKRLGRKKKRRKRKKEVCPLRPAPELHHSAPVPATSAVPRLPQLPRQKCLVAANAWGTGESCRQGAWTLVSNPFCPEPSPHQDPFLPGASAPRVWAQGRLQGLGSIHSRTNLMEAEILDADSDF

Row | inhibition at 2 µM [%] | SMILES
1 | 86 | O=C(N[C@@H]1CCC[C@H](c2nc3ccccc3[nH]2)C1)c1ccc2scnc2c1 [Example 216, N-[(1R,3S)-3-(1H-benzimidazol-2-yl)cyclohexyl]-1,3-benzothiazole-5-carboxamide triflouroacetate]
2 | 85 | Cn1c(=O)[nH]c2cc(C(=O)N[C@@H]3CCC[C@H](c4nc5ccccc5[nH]4)C3)ccc21 [Example 217, N-[(1R,3S)-3-(1H-benzimidazol-2-yl)cyclohexyl]-1-methyl-2-oxo-2,3-dihydro-1H-benzimidazole-5-carboxamide triflouroacetate]
3 | 96 | O=C(N[C@@H]1CCC[C@H](c2nc3ccccc3[nH]2)C1)[C@@H]1CCc2ccccc2O1 [Example 218, (2S)-N-[(1R,3S)-3-(1H-benzimidazol-2-yl)cyclohexyl] chromane-2-carboxamide triflouroacetate]
4 | 87 | O=C1Cc2cc(C(=O)N[C@@H]3CCC[C@H](c4nc5ccccc5[nH]4)C3)ccc2N1 [Example 219, N-[(1R,3S)-3-(1H-benzimidazol-2-yl)cyclohexyl]-2-oxoindoline-5-carboxamide triflouroacetate]
5 | 81 | O=C1CCc2cc(C(=O)N[C@@H]3CCC[C@H](c4nc5ccccc5[nH]4)C3)ccc2N1 [Example 220, N-[(1R,3S)-3-(1H-benzimidazol-2-yl)cyclohexyl]-2-oxo-1,2,3,4-tetrahydroquin-oline-6-carboxamide triflouroacetate]
6 | 48 | CCc1ccc2nc(C(=O)N[C@@H]3CCC[C@H](c4nc5ccccc5[nH]4)C3)cn2c1 [Example 221, N-[(1R,3S)-3-(1H-benzimidazol-2-yl)cyclohexyl]-6-ethylimidazo[1,2-a]pyridine-2-carboxamide triflouroacetate]
7 | 52 | COc1cc(C(=O)N[C@@H]2CCC[C@H](c3nc4ccccc4[nH]3)C2)cc2c1OCO2 [Example 222, N-[(1R,3S)-3-(1H-benzimidazol-2-yl)cyclohexyl]-7-methoxy-1,3-benzodioxole-5-carboxamide triflouroacetate]
8 | 105 | O=C(N[C@@H]1CCC[C@H](c2nc3ccc(C(F)(F)F)cc3[nH]2)C1)c1ccc2c(c1)OCCO2 [Example 223, N-((1R,3S)-3-[6-(trifluoromethyl)-1H-benzimidazol-2-yl]cyclohexyl]-2,3-dihydro-1,4-benzodioxine-6-carboxamide HCl]
9 | 106 | O=C(N[C@@H]1CCC[C@H](c2nc3ccc(Br)cc3[nH]2)C1)c1ccc2c(c1)OCCO2 [Example 224, N-[(1R,3S)-3-(6-bromo-1H-benzimidazol-2-yl)cyclohexyl]-2,3-dihydro-1,4-benzodioxine-6-carboxamide HCl]
10 | 70 | O=C(NCCCCl)N[C@@H]1CCC[C@H](c2nc3ccccc3[nH]2)C1 [Example 225, 1-((1R,3S)-3-(1H-benzo[d]imidaz-ol-2-yl)cyclohexyl)-3-(3-chloropropyl)-urea]
11 | 63 | O=C(NC1CCCC1)N[C@@H]1CCC[C@H](c2nc3ccccc3[nH]2)C1 [Example 226, 1-((1R,3S)-3-(1H-benzo[d]imidaz-ol-2-yl)cyclohexyl)-3-cyclopentylurea]
12 | 115 | O=C(Nc1cc(Cl)cc(Cl)c1)N[C@@H]1CCC[C@H](c2nc3ccccc3[nH]2)C1 [Example 227, 1-[(1R,3S)-3-(1H-benzimidazol-2-yl)cyclohexyl]-3-(3,5-dichlorophenyl) urea]
13 | 109 | N#Cc1ccc(NC(=O)N[C@@H]2CCC[C@H](c3nc4ccccc4[nH]3)C2)cc1 [Example 228, 1-[(1R,3S)-3-(1H-benzimidazol-2-yl)cyclohexyl]-3-(4-cyanophenyl) urea]
14 | 108 | O=C(Nc1ccc(-c2ccccc2)s1)N[C@@H]1CCC[C@H](c2nc3ccccc3[nH]2)C1 [Example 229, 1-[(1R,3S)-3-(1H-benzimidazol-2-yl)cyclohexyl]-3-(5-phenyl-2-thienyl)urea]
15 | 111 | O=C(Nc1cc(F)cc2c1OCOC2)N[C@@H]1CCC[C@H](c2nc3ccccc3[nH]2)C1 [Example 230, 1-[(1R,3S)-3-(1H-benzimidazol-2-yl)cyclohexyl]-3-(6-fluoro-4H-1,3-benzodioxol-8-yl)urea]
16 | 103 | N#Cc1cccc(NC(=O)N[C@@H]2CCC[C@H](c3nc4ccccc4[nH]3)C2)c1 [Example 231, 1-[(1R,3S)-3-(1H-benzimidazol-2-yl)cyclohexyl] 3-(3-cyanophenyl)-urea]
17 | 103 | COc1ccc(NC(=O)N[C@@H]2CCC[C@H](c3nc4ccccc4[nH]3)C2)cc1 [Example 232, 1-[(1R,3S)-3-(1H-benzimidazol-2-yl)cyclohexyl]-3-(4-methoxyphenyl) urea]
18 | 48 | Cc1noc(C)c1NC(=O)N[C@@H]1CCC[C@H](c2nc3ccccc3[nH]2)C1 [Example 233, 1-((1R,3S)-3-(1H-benzo[d]imidaz-ol-2-yl)cyclohexyl)-3-(3,5-dimethylisoxaz-ol-4-yl)urea]

Row | inhibition at 2 µM [%] | SMILES
19 | 108 | O=C(Nc1ccc(Cl)cc1Cl)N[C@@H]1CCC[C@H](c2nc3ccccc3[nH]2)C1 [Example 234, 1-[(1R,3S)-3-(1H-benzimidazol-2-yl)cyclohexyl]-3-(2,4-dichlorophenyl) urea]
20 | 98 | COc1ccc(NC(=O)N[C@@H]2CCC[C@H](c3nc4ccccc4[nH]3)C2)c(C)c1 [Example 235, 1-[(1R,3S)-3-(1H-benzimidazol-2-yl)cyclohexyl]-3-(4-methoxy-2-methylphenyl) urea]
21 | 108 | CC(C)c1ccc(NC(=O)N[C@@H]2CCC[C@H](c3nc4ccccc4[nH]3)C2)cc1 [Example 236, 1-[(1R,3S)-3-(1H-benzimidazol-2-yl)cyclohexyl]-3-(4-isopropylphenyl) urea]
22 | 111 | O=C(Nc1ccc(Cl)c(Cl)c1)N[C@@H]1CCC[C@H](c2nc3ccccc3[nH]2)C1 [Example 237]
23 | 114 | O=C(Nc1ccc(Cl)c(C(F)(F)F)c1)N[C@@H]1CCC[C@H](c2nc3ccccc3[nH]2)C1 [Example 238, 1-[(1R,3S)-3-(1H-benzimidazol-2-yl)cyclohexyl]-3-[4-chloro-3-(trifluoromethyl)phenyl]urea]
24 | 23 | COc1ccc2[nH]c([C@@H]3CCC[C@H](NC(=O)c4ccc5c(c4)OCCO5)C3)nc2c1 [Example 239, N-((1S,3R)-3-(5-methoxy-1H-benzo[d]imidaz-ol-2-yl)cyclohexyl)-2,3-dihydrobenzo[b] [1,4]dioxine-6-carboxamide HCl]
25 | 60 | Cn1c([C@@H]2CCC[C@@H](NC(=O)c3ccc4c(c3)OCCO4)C2)nc2ccccc21 [Example 240, N-([1R,3R]-3-(1-methyl-1H-benzo[d]imidaz-ol-2-yl)cyclohexyl)-2,3-dihydrobenzo[b] [1,4]dioxine-6-carboxamide HCl]
26 | 86 | O=C(N[C@@H]1CCC[C@H](c2nc3ccccc3[nH]2)C1)c1ccc2c(n1)OCCO2 [Example 242, N-((1R,3S)-3-(1H-benzo[d]imidaz-ol-2-yl)cyclohexyl)-2,3-dihydro-[1,4]dioxino[2,3-b]pyridine-6-carboxamide]
27 | 96 | O=C(N[C@@H]1CCC[C@H](c2nc3ccccc3[nH]2)C1)c1cnc2c(c1)OCCO2 [Example 243, N-((1R,3S)-3-(1H-benzo[d]imidaz-ol-2-yl)cyclohexyl)-2,3-dihydro-[1,4]dioxino[2,3-b]pyridine-7-carboxamide]
28 | 66 | Cn1c(C23CCCC(NC(=O)c4ccc5c(c4)OCCO5)(C2)C3)nc2ccccc21 [Example 244, N-(5-(1-methyl-1H-benzo[d]imidaz-ol-2-yl)bicyclo[3.1.1]heptan-1-yl)-2,3-dihydrobenzo[b] [1,4]dioxine-6-carboxamide]
29 | 49 | COc1cc(OC)cc(C(=O)NC23CCCC(c4nc5ccccc5n4C)(C2)C3)c1 [Example 245, 3,5-dimethoxy-N-(5-(1-methyl-1H-benzo[d]imidaz-ol-2-yl)bicyclo[3.1.1]heptan-1-yl)benzamide]
30 | 44 | O=C(N[C@H]1CCC[C@H](c2nc3ccccc3[nH]2)C1)c1cc(C2CC2)n[nH]1 [Example 246, N-(3-(1H-benzo[d]imidaz-ol-2-yl)cyclohexyl)-3-cyclopropyl-1H-pyrazole-5-carboxamide HCl]
31 | 98 | O=C1CCc2cc(C(=O)N[C@H]3CCC[C@H](c4nc5ccccc5[nH]4)C3)ccc2N1 [Example 247, N-(3-(1H-benzo[d]imidaz-ol-2-yl)cyclohexyl)-2-oxo-1,2,3,4-tetrahydroquino-line-6-carboxamide HCl]
32 | 74 | COc1ccc2cc(C(=O)N[C@H]3CCC[C@H](c4nc5ccccc5[nH]4)C3)n(C)c2c1 [Example 248, N-(3-(1H-benzo[d]imidaz-ol-2-yl)cyclohexyl)-6-methoxy-1-methyl-1H-indole-2-carboxamide HCl]
33 | 109 | CN1C(=O)COc2ccc(C(=O)N[C@H]3CCC[C@H](c4nc5ccccc5[nH]4)C3)cc21 [Example 249, N-(3-(1H-benzo[d]imidaz-ol-2-yl)cyclohexyl)-4-methyl-3-oxo-3,4-dihydro-2H-benzo[d][1,4]ox-azine-6-carboxamide HCl]
34 | 94 | Cn1c(C23CCCC(NC(=O)c4ccc5c(c4)OC(F)(F)O5)(C2)C3)nc2ccccc21 [Example 250, 2,2-difluoro-N-(5-(1-methyl-1H-benzo[d]imidaz-ol-2-yl)bicyclo[3.1.1]heptan-1-yl)benzo[d][1,3] dioxole-5-carboxamide]
35 | 102 | O=C(N[C@@H]1CCCC(c2nc3ccccc3[nH]2)C1)c1ccc2c(c1)OC(F)(F)O2 (stereo partly drawn) [Example 251, N-((1R,3S)-3-(1H-benzo[d]imidaz-ol-2-yl)cyclohexyl)-2,2-difluorobenzo[d] [1,3]dioxole-5-carboxamide]

Row | SMILES | inhibition at 2 µM [%]
36 | O=C(N[C@@H]1CCC[C@@H](c2nc3ccccc3[nH]2)C1)c1ccc2c(c1)OCCO2 [Example 241] | 63
